What was measured:
C6 [1] = experiment: Protection against C6 glial cell death induced by maitotoxin; type: functional, cell-based; conditions: Rattus norvegicus
Rattus norvegicus = organism: Rattus norvegicus; experiment: Ability to inhibit [Fe2+] induced lipid peroxidation (LPO) in rat brain microsomes; type: functional
[2] = biological target: T1, Calpain-1 catalytic subunit (Homo sapiens, UniProt P07384); experiment: Inhibitory activity against on human calpain 1
T1 sequence (P07384 whole entry): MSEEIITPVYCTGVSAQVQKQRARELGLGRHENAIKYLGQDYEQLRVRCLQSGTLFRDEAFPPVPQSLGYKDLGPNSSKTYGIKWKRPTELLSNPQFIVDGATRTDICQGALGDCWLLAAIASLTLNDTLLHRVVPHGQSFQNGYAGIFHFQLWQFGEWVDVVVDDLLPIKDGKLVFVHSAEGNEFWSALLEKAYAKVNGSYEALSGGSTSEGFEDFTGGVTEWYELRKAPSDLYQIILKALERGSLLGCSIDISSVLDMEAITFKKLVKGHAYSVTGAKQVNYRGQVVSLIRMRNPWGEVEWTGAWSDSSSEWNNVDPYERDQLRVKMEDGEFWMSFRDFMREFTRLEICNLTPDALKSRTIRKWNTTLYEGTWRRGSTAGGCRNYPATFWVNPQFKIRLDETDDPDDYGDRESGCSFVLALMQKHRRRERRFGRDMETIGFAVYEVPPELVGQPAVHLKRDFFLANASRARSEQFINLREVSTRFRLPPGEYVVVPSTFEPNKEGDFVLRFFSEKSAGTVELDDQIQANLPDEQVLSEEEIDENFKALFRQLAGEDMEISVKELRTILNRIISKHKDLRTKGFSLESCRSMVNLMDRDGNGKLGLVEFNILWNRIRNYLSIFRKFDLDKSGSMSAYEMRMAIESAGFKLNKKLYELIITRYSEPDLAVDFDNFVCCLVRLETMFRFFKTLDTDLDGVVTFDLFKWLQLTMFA

[3] = biological target: T1, Calpain-1 catalytic subunit; experiment: Inhibitory activity against on calpain in C6 glial cells; Not active; type: functional, cell-based, Rattus norvegicus
[4] = biological target: T1, Calpain-1 catalytic subunit; experiment: Inhibitory activity against on human calpain 1; Not active
C6 [5] = experiment: Protection against C6 glial cell death induced by maitotoxin at 100 uM concentration; type: functional; conditions: Rattus norvegicus

IC50 [2] [nM]	Structure (SMILES)	IC50 (C6 [1]) [nM]	IC50 (Rattus norvegicus) [nM]	IC50 [3]	IC50 [4]	inhibition at 100 µM (C6 [5]) [%]
147	Cc1c(C)c2c(c(C)c1O)CCC(C)(C(=O)N[C@@H](CC(C)C)C(=O)N[C@H]1CCOC1O)O2 (some centres not stated)	–	1700	–	–	–
82	CC(C)C[C@H](NC(=O)c1cccc2c1Nc1ccccc1S2)C(=O)N[C@H]1CCOC1O (some centres not stated)	–	3600	–	–	–
–	CC(=O)OC1OCC[C@@H]1NC(=O)[C@H](CC(C)C)NC(=O)c1ccc2c(c1)Nc1ccccc1S2 (some centres not stated)	15500	–	–	–	–
–	Cc1cc(C(C)(C)C)c(O)c(C(C)(C)C)c1 [BUTYLATED HYDROXYTOLUENE]	–	3250	Not Active	Not Active	21

Structure (SMILES)	IC50 [2] [nM]	IC50 (C6 [1]) [nM]	IC50 (Rattus norvegicus) [nM]	IC50 [3]	IC50 [4]	inhibition at 100 µM (C6 [5]) [%]
CC(C)C[C@H](NC(=O)c1ccc2c(c1)Nc1ccccc1S2)C(=O)N[C@H]1CCOC1O (some centres not stated)	22.5	38500	70	–	–	–

— ChEMBL document CHEMBL1146815, “Novel dual inhibitors of calpain and lipid peroxidation” (Bioorg Med Chem Lett, 2004)
